Measured values from BindingDB's records for patent US20240109915 (Pfizer, 2024).

Target: Acetyl-CoA carboxylase 1 (Homo sapiens, UniProt Q13085)
Test: Inhibition of the Activity of ACC1
Description: The direct inhibition of ACC1 for the compounds of the present invention was determined using preparations of recombinant human ACC1 (rhACC1) (SEQ ID NO. 1). Preparation of rhACC1: Two liters of SF9 cells, infected with recombinant baculovirus containing full length human ACC1 cDNA, were suspended in ice-cold lysis buffer (25 mM Tris, pH 7.5; 150 mM NaCl; 10% glycerol; 5 mM imidazole (EMD Bioscience; Gibbstown, NJ); 2 mM TCEP (BioVectra; Charlottetown, Canada); Benzonase nuclease (10000 U/100 g cell paste; Novagen; Madison, WI); EDTA-free protease inhibitor cocktail (1 tab/50 ml; Roche Diagnostics; Mannheim, Germany). Cells were lysed by 3 cycles of freeze-thaw and centrifuged at 40,000×g for 40 minutes (4° C.). Supernatant was directly loaded onto a HisTrap FF crude column (GE Healthcare; Piscataway, NJ) and eluted with an imidazole gradient up to 0.5 M over 20 column volumes (CV). ACC1-containing fractions were pooled and diluted 1:5 with 25 mM Tris, pH 7.5, 2 mM TCEP, 10% glycerol and direct loaded onto a CaptoQ (GE Healthcare) column and eluted with an NaCl gradient up to 1 M over 20 CV's. Phosphate groups were removed from purified ACC1 by incubation with lambda phosphatase (100 U/10 μM target protein; New England Biolabs; Beverly, MA) for 14 hours at 4° C.; okadaic acid was added (1 μM final concentration; Roche Diagnostics) to inhibit the phosphatase. […]

SMILES	IC50
Cn1ncc2c(Cl)cc(C(=O)N3CCC4(CC3)CC(=O)c3nc(C(C)(C)C)sc3C4)cc21 [US20240109915, Example 73]	22.9 nM
Cc1nn(C)c2c(Cl)cc(C(=O)N3CCC4(CC3)CC(=O)c3nc(C(C)(C)C)sc3C4)cc12 [US20240109915, Example 84]	92.6 nM
